Several values for one entry are separate records, joined by “and”; a condition that tells them apart may be missing. Identical values can stand only once.

The source of these data is PubChem BioAssay AID1918996 (Molecular Pharmacology Branch, DTP, NCI, 2023).
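Note: spheroids also contain HUVEC endothelial cells and human MSC stroma; spheroids exposed to agents for seven days before luminescence viability read.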

One assay concerns 349418-098-R-PDC complex spheroid growth. Put plainly: Anticancer human tumor 349418-098-R-PDC patient-derived lung adenocarcinoma cell line growth inhibition [AhR]. The note with it: compound 0.0316 µM; stronger effect = lower value. The source says:
Multicellular complex tumor spheroid response to aryl hydrocarbon receptor antagonists in combination with a variety of drugs and investigational agents in selected tumor cell lines
The current study was undertaken to assess response to aryl hydrocarbon receptor antagonists in combination with standard-of-care drugs and investigational agents in solid tumor complex spheroid models. Complex spheroids include a stromal component modeled by human endothelial cells (HUVEC) and fibroblasts modeled by human mesenchymal stem cells (MSCs). The concentration ranges selected for each drug and investigational agent were based upon clinically achievable concentrations if the clinical Cmax of the agent was known.
Compounds. The drugs and investigational agents: BAY 2416964 (NSC825713), GNF351 (NSC835774), CH-223191 (NSC835775), CPI-455 (NSC825282), aza-TdCyd (NSC777586), decitabine (NSC127716), belinostat (NSC758774), entinostat (NSC756642), pevonedistat (NSC761192), tazemetostat (NSC777109), talazoparib (NSC765396), olaparib (NSC753686), selinexor (NSC780203), nedisertib (M3814, NSC802822), bortezomib (NSC756655), venetoclax (NSC766270), doxorubicin (NSC123127), elimusertib (BAY189344, NSC800525), ceralasertib (AZD6738, NSC777638), TAK-243 (NSC785004), alisertib (NSC759677), etoposide (NSC141540), topotecan (NSC609699), eribulin (NSC707389), gemcitabine (NSC613327), carboplatin (NSC241240), cisplatin (NSC119875), and SN-38 (NSC673596) were obtained from the National Cancer Institute (NCI) Developmental Therapeutics Program Chemical Repository (32). The FDA-approved anticancer drug set is available from the Developmental Therapeutics Program at https://dtp.cancer.gov/organization/dscb/obtaining/available plates.htm. […] The stock solutions were prepared in dimethyl sulfoxide (DMSO, Sigma-Aldrich, St. Louis, MO, cat. D2650), except for the platinum compounds which were prepared in saline (Quality Biological, Gaithersburg, MD, cat. 114-055-101), at 800-fold the tested concentration and stored at -70 degrees C prior to their use. All drugs and investigational agents were tested over a range starting from a high concentration at or near the clinical Cmax and decreasing in half-log increments. If the clinical Cmax for an agent had not been determined, the highest concentration tested was 10 microM (Table 1).
Cell Culture. All cells were maintained in an incubator at 37 degrees C and 5% CO2 with 95% humidity. The PDC lines were cultured according to standard operating procedures established by the NCI PDMR (https://pdmr.cancer.gov). Briefly, all PDCs were thawed and cultured in Matrigel-coated flasks prepared with a working solution of 1X Ham's F-12 nutrient mix, without supplementation (Invitrogen, Waltham, MA, cat. 11765054), 100 U/mL penicillin-streptomycin (Invitrogen, cat. 15140122), and 2.5% Matrigel (Corning Inc., Corning, NY, cat. 354248) for the first three passages. All PDCs were cultured in complete DMEM/F-12 media containing advanced DMEM/F-12 (Invitrogen, cat. 12634028), 4.9% defined fetal bovine serum, heat inactivated (HyClone Laboratories Inc., Logan, UT, cat. SH30070.03HI), 389 ng/mL hydrocortisone (Sigma-Aldrich, cat. H4001), 9.7 ng/mL human EGF recombinant protein (Invitrogen, cat. PHG0313), 23.4 microg/mL adenine (Sigma-Aldrich, cat. A2786), 97.3 U/mL penicillin-streptomycin (Invitrogen, cat. 15140122), 1.9 mM L-glutamine (Invitrogen, cat. 25030081), and 9.7 microM Y-27632 dihydrochloride (Tocris Bioscience, Bristol, United Kingdom, cat. 1254). The PDCs were cultured in complete DMEM/F12 media without 10 microM Y-27632 dihydrochloride for at least two passages prior to the screen. The established cell lines NCI-H1341 and […] were cultured in DMEM/F-12, HEPES (Invitrogen, cat. 11330032), 5% defined fetal bovine serum (HyClone Laboratories Inc., cat. SH30070.03), ITS premix universal culture supplement [insulin (5 microg/mL), transferrin (5 microg/mL), and selenious acid (5 ng/mL)] […]
For orientation: viability, T/C means the result in the treated group divided by that in the control group, in per cent. For `COc1cc(C2c3cc4c(cc3C(OC3OC5COC(C)OC5C(O)C3O)C3COC(=O)C23)OCO4)cc(OC)c1O` (configuration not stated), the viability, T/C was 99.4% and 112% and 89.4%.

For the compound `COc1cc(Nc2ncc3c(n2)-c2ccc(Cl)cc2C(c2c(F)cccc2OC)=NC3)ccc1C(=O)O`, the viability, T/C is 71.2% and 55.7% and 53.1%.

In the case of `COc1cccc2c1C(=O)c1c(O)c3c(c(O)c1C2=O)CC(O)(C(=O)CO)CC3OC1CC(N)C(O)C(C)O1` (configuration not stated), the viability, T/C is 12.1% and 24.6% and 20.9%.

`Cn1ncnc1C1c2n[nH]c(=O)c3cc(F)cc(c23)NC1c1ccc(F)cc1` (configuration not stated): the viability, T/C was 87.6% and 97.2% and 84.1%.

With `NS(=O)(=O)OCC1CC(n2ccc3c(NC4CCc5ccccc54)ncnc32)CC1O` (configuration not stated), the viability, T/C was 94% and 96.6% and 72.3%.

Consider `Nc1ccccc1NC(=O)c1ccc(CNC(=O)OCc2cccnc2)cc1`, for which the viability, T/C was 86.3% and 118% and 87.5%.

Regarding `Nc1ccn(C2OC(CO)C(O)C2(F)F)c(=O)n1` (configuration not stated), the viability, T/C is 4.83% and 12.5% and 13.7%.

Consider `Nc1ncn(C2CC(O)C(CO)O2)c(=O)n1` (configuration not stated), for which the viability, T/C was 80% and 57.7% and 46.6%.

Turning to `O=C(C=Cc1cccc(S(=O)(=O)Nc2ccccc2)c1)NO`, the viability, T/C is 81.9% and 112% and 124%.

Consider `O=C(c1cc(Cc2n[nH]c(=O)c3ccccc23)ccc1F)N1CCN(C(=O)C2CC2)CC1`, for which the viability, T/C is 99.3% and 78.6% and 91.4%.

The assay is the same for the next values; noted with them: compound 0.0949 µM; stronger effect = lower value.
As to `CC(C)CC(NC(=O)C(Cc1ccccc1)NC(=O)c1cnccn1)B(O)O` (configuration not stated), the viability, T/C is 0.72% and 2.31% and 2.54%.

For the compound `CCN(c1cc(-c2ccc(CN3CCOCC3)cc2)cc(C(=O)NCc2c(C)cc(C)[nH]c2=O)c1C)C1CCOCC1`, the viability, T/C is 105% and 81.2% and 91.1%.

Consider `CCc1c2c(nc3ccc(O)cc13)-c1cc3c(c(=O)n1C2)COC(=O)[C@]3(O)CC`, for which the viability, T/C was 3.4% and 8.26% and 6.22%.

For `Nc1ncn(C2CC(O)C(CO)S2)c(=O)n1` (configuration not stated), the viability, T/C is 51.7% and 54.9% and 55.8%.

In the case of `O=C(C=Cn1cnc(-c2cc(C(F)(F)F)cc(C(F)(F)F)c2)n1)NNc1cnccn1`, the viability, T/C is 40.3% and 14.9% and 16.5%.

The assay is the same for the next values; noted with them: compound 0.1 µM; stronger effect = lower value.
Turning to `CC1(C)CCC(CN2CCN(c3ccc(C(=O)NS(=O)(=O)c4ccc(NCC5CCOCC5)c([N+](=O)[O-])c4)c(Oc4cnc5[nH]ccc5c4)c3)CC2)=C(c2ccc(Cl)cc2)C1`, the viability, T/C was 110% and 106% and 101%.

Consider `CC1COCCN1c1cc(-c2ccnn2C)c2ccnc(-c3ccn[nH]3)c2n1` (configuration not stated), for which the viability, T/C is 64% and 45.4% and 42.6%.

On to `CC[C@@]1(O)C(=O)OCc2c1cc1n(c2=O)Cc2cc3c(CN(C)C)c(O)ccc3nc2-1`, for which the viability, T/C is 15.3% and 21.5% and 13.5%.

With `COc1cc(C2c3cc4c(cc3C(OC3OC5COC(C)OC5C(O)C3O)C3COC(=O)C23)OCO4)cc(OC)c1O` (configuration not stated), the viability, T/C was 99.9% and 91.1% and 91.7%.

`COc1cc(Nc2ncc3c(n2)-c2ccc(Cl)cc2C(c2c(F)cccc2OC)=NC3)ccc1C(=O)O`: the viability, T/C was 60.4% and 48.7% and 48.4%.

Consider `COc1cccc2c1C(=O)c1c(O)c3c(c(O)c1C2=O)CC(O)(C(=O)CO)CC3OC1CC(N)C(O)C(C)O1` (configuration not stated), for which the viability, T/C is 7.69% and 19% and 13.3%.

Regarding `Cn1ncnc1C1c2n[nH]c(=O)c3cc(F)cc(c23)NC1c1ccc(F)cc1` (configuration not stated), the viability, T/C is 90.1% and 98.5% and 63.7%.

With `NS(=O)(=O)OCC1CC(n2ccc3c(NC4CCc5ccccc54)ncnc32)CC1O` (configuration not stated), the viability, T/C is 96.1% and 79.4% and 73.2%.

Turning to `Nc1ccccc1NC(=O)c1ccc(CNC(=O)OCc2cccnc2)cc1`, the viability, T/C is 77.6% and 98.4% and 82.2%.

Consider `Nc1ccn(C2OC(CO)C(O)C2(F)F)c(=O)n1` (configuration not stated), for which the viability, T/C was 4.18% and 11.3% and 11.8%.

For the compound `Nc1ncn(C2CC(O)C(CO)O2)c(=O)n1` (configuration not stated), the viability, T/C is 67% and 49.8% and 46.6%.

Turning to `O=C(C=Cc1cccc(S(=O)(=O)Nc2ccccc2)c1)NO`, the viability, T/C was 83.5% and 128% and 78%.

On to `O=C(c1cc(Cc2n[nH]c(=O)c3ccccc23)ccc1F)N1CCN(C(=O)C2CC2)CC1`, for which the viability, T/C was 96.3% and 102% and 76.1%.

The same assay, now with this note: compound 0.3 µM; stronger effect = lower value.
For `CC(C)CC(NC(=O)C(Cc1ccccc1)NC(=O)c1cnccn1)B(O)O` (configuration not stated), the viability, T/C is 0.73% and 2.25% and 1.49%.

Take `CCN(c1cc(-c2ccc(CN3CCOCC3)cc2)cc(C(=O)NCc2c(C)cc(C)[nH]c2=O)c1C)C1CCOCC1`: the viability, T/C was 108% and 64.7% and 101%.

Take `CCc1c2c(nc3ccc(O)cc13)-c1cc3c(c(=O)n1C2)COC(=O)[C@]3(O)CC`: the viability, T/C was 1.91% and 6.96% and 4.74%.

Regarding `Nc1ncn(C2CC(O)C(CO)S2)c(=O)n1` (configuration not stated), the viability, T/C is 29% and 31.2% and 26.1%.
